According to US20100098654A1:

How the values were obtained:
[1] = system: human neuroblastoma cells (HTLA-230); test: Pseudometastatic human neuroblastoma (HTLA-230) xenografted mice, survival; type: in vivo; settings: HTLA-230 i.v. in nude mice, 10 mg/kg q2d×5
Method: Xenografts were established in mice by injecting human neuroblastoma cells (HTLA-230) intravenously at zero time point.
Four-week-old female athymic nude (nu/nu) mice were purchased from Harlan Laboratories (Harlan Italy-S.Pietro al Natisone, UD). Eight mice/group were injected with the human NB cell line, HTLA-230 (3.5×10^6 cells in 200 μl of HEPES-buffered saline) in the tail vein (i.v.) on day 0. The mice were then randomly assigned to each test group (8 mice per group). […] Control group received HEPES-buffered saline. The mice were monitored routinely for weight loss. Survival times were used as the criteria for determining treatment efficacy.

[2] = system: human neuroblastoma cells (GI-LI-N); test: Orthotopic human neuroblastoma (GI-LI-N) xenografted mice; type: in vivo, mouse (human tumor xenograft)
Method: Xenograft tumors were established in mice by injecting human neuroblastoma cells (GI-LI-N) in the adrenal gland.
Five-week-old female athymic nude (nu/nu) mice were randomly assigned to each test group (8 mice per group). Eight mice/group were anaesthetised and injected with the human NB cell line, GI-LI-N (1×10^6 cells in 15 μl of HEPES buffer), after laparatomy, in the capsule of the left adrenal gland. Mice were monitored at least two times weekly for evidence of tumor development, quantification of tumor size, and evidence of tumor-associated morbidity. […] Control group received HEPES-buffered saline. The body weight and general physical status of the animals was observed daily and any mouse was terminated when a tumor reached 1000-1200 mm^3. Survival time was used as the criteria for determining treatment efficacy.
Tumors were removed from orthotopic neuroblastoma-bearing mice at day 50. Tumor sections were immunostained for NB84 as a neuroblastoma cell marker, and Ki-67 as a tumor cell proliferation marker. Cell nuclei were stained with DAPI.
Control group received HEPES-buffered saline.

[3] = system: human neuroblastoma cells NXS2; test: NXS2 xenografted mice, survival; type: in vivo; settings: NXS2 in A/J mice
Method: Xenograft tumors were established in immunocompetent A/J mice by injecting […] neuroblastoma cells, NXS2, in the adrenal gland.
The immunocompetent mice were injected with another […] NB cell, NXS2 of 5×10^4 cells or 5×10^5 cells in the left adrenal gland. Tumors were allowed to grow for 2 days and reached the average volume of approximately 200 mm^3. […] Control group received HEPES-buffered saline. Survival time was used as the criteria for determining treatment efficacy.

[4] = GI-LI-N orthotopic (Example 27), 10 mg/kg q2d×5

**Q.** `CCc1c2c(nc3ccc(OC(=O)N4CCC(N5CCCCC5)CC4)cc13)-c1cc3c(c(=O)n1C2)COC(=O)[C@]3(O)CC` [CPT-11] was tested. Which mice surviving [1] did it give?
**A.** None

**Q.** What about the “time by which animals died” value ([1]; from the cancer injection) of the same compound?
**A.** ≤ 85 days

**Q.** And the mice surviving [2, 4]?
**A.** None

**Q.** And the “time by which animals died” value [2, 4]?
**A.** ≤ 80 days

**Q.** What about the “time by which animals died” value ([2]; GI-LI-N orthotopic (Example 30), 10 mg/kg/dose) of the same compound?
**A.** ≤ 80 days

**Q.** What about the mice surviving ([2]; GI-LI-N orthotopic (Example 30), 10 mg/kg/dose day 21, 23, 25, 27, 29) of the same compound?
**A.** None

**Q.** And the “effect on survival rate” value ([2]; GI-LI-N orthotopic (Example 30), at MTD (40 mg/kg))?
**A.** slightly improved survival rate

**Q.** And the mice surviving ([3]; 10 mg/kg/dose q2d×5)?
**A.** None

**Q.** What about the mice surviving ([3]; MTD (40 mg/kg) q2d×5) of the same compound?
**A.** None
